Reference: US10280158B2, “Immune adjustment compound, use thereof and pharmaceutical composition comprising same” (SUZHOU CONNECT BIOPHARMACEUTICALS, LTD., priority 2013, dated 2019)

How the values were obtained:
human S1P3 = human S1P3 (Homo sapiens, UniProt Q99500); experiment: Internalization effect experiment of S1P3 (CHO-S cells); format: cell-based; settings: for internalization activation effect on S1P3 subtype: CHO-S cells expressing human S1P3, in words; for EC50: CHO-S cells expressing human S1P3, read-out: Receptor Internalization (EC50) S1P3
Protocol: CHO—S cells bearing human S1P1 with Myc tag were harvested and then adjusted to a density of one million cells per mL by Dulbecco's modified Eagle's medium (DMEM). […] After incubation, the mixture was centrifuged at 800 RPM for 5 minutes to obtain the cells. The cells were resuspended in FACS buffer (PBS containing 1% BSA), and Myc antibody labelled with fluorescein isothiocyanate (FITC) (from Californian Miltenyi Biotec GmbH, USA) was added in and incubated for 1 hour on ice. The cells were washed, resuspended in pre-cooled FACS buffer and analysed by FACS Calibur flow cytometry.
CHO—S cells expressing human S1P3 were used to perform internalization detection test. Besides cells, experimental method was the same with the method of the internalized detection experiment of S1P1.

human S1P1 = target: T1, human S1P1 (Homo sapiens, UniProt P21453); experiment: Internalization effect experiment on S1P1 (CHO-S cells, Myc tag, flow cytometry); format: cell-based; settings: for EC50: CHO-S cells expressing human S1P1, 1 hour at 37° C., read-out: Receptor Internalization (EC50) S1P1; for activity of inducing S1P1 internalization: CHO-S cells expressing human S1P1, in words
T1 construct: expressed in transfected cells; host or cells: CHO-S cells
Excerpt: It is well known that S1P1 small molecule agonists can prevent lymphocytes from entering the peripheral circulation by inducing internalization of S1P1 on cell surface. In order to determine whether the compounds provided by present invention have an activity of inducing S1P1 internalization, CHO—S cells expressing human S1P1, to replace the lymphocytes, are used as detection system of S1P1 internalization. For ease of monitoring the S1P1 on cell surface, a Myc tag is fused to N-terminal of S1P1, thus the expression of S1P1 is analyzed by flow cytometry after incubating the cells with fluorescent-labeled antibody against the Myc tag.
A 10 mM stock solution was prepared by dissolving compound 2 provided by the present invention in dimethyl sulfoxide (DMSO), and then the stock solution was diluted to different concentrations as desired with DMEM. CHO—S cells bearing human S1P1 with Myc tag were harvested and then adjusted to a density of one million cells per mL by Dulbecco's modified Eagle's medium (DMEM). Different concentrations of Compound 2 diluted in an equal volume were mixed and the cell suspension and then incubated at 37° C. for 1 hour. After incubation, the mixture was centrifuged at 800 RPM for 5 minutes to obtain the cells. The cells were resuspended in FACS buffer (PBS containing 1% BSA), and Myc antibody labelled with fluorescein isothiocyanate (FITC) (from Californian Miltenyi Biotec GmbH, USA) was added in and incubated for 1 hour on ice. The cells were washed, resuspended in pre-cooled FACS buffer and analysed by FACS Calibur flow cytometry.

[1] = In vivo pharmacokinetic experiment, oral administration; set-up: species or system Sprague Dawley rats; settings: for half-life / AUC(0-inf) / Cmax / Tmax: male, Sprague-Dawley, rat, plasma; for half-life: po, 3 mg/kg; for elimination speed after the highest concentration, compared with compounds 1 and 5: oral administration, FIGS. 1A and 1B
Protocol: (§1) In this Example, the pharmacokinetic properties of compounds 1, 2, 3, 4 and 5 were evaluated via. i.v. and p.o. dosing to Sprague Dawley rats.
(§2) Experimental animals used in this Example and hereinafter were male SD rats of 7-9 weeks old, with body weight ranging from 186 to 231 g, which were purchased from Beijing Vital River Laboratory Animal Technology Co., Ltd. The animals were quarantined by veterinarian for 5 days after purchase, then animals had passed quarantine inspection were selected to be tested under SPE conditions, wherein the tested animals are assigned into 3 rats per group as follows.
Oral administration group: 2.74 mg of each of compounds 1-5 was respectively prepared into a solution of 0.3 mg/mL by using 9.113 mL 0.5% CMC-Na as a diluent. Each solution was vortexed 1-2 mins after mixed fully, and then was ultrasonically treated for 20-30 mins until a uniform suspension was obtained. The uniform suspension was used as medicine administrated to oral administration group, and the administration was conducted with a dose of 10 mL/kg body weight of each rat.
(§3) For both oral administration group and intravenous administration group, blood samples were collected at 0.0833 h (5 min), 0.25 h (15 min), 0.5 h, 1 h, 2 h, 4 h, 8 h, and 24 h after administration. After isoflurane anesthesia 0.3 mL whole blood was collected from orbital venous plexus of the animals at each time point. The animals would be euthanized after all samples were collected.
(§4) The collected blood samples were placed in EP tubes containing heparin sodium (about 10 μl, 1000 IU/mL), which were then placed in trash ice immediately, and centrifuged at 4,000 rpm and a low temperature (4° C.) for 5 minutes. The plasma was isolated rapidly and then stored at −20° C. until analysis.
(§5) The concentration of each compound in blood was measured by LC-MS/MS-001 (Q-trap-3200) with osalmide as internal standard material, as follows. 24 μL blank plasma was added into 6 μL plasma sample (5 times of dilution), and then a solution of acetonitrile containing 150 μL internal standard material (osalmide in 100 μg/mL) was added in. The mixture was shaken for 5 minutes, and then centrifuged at 4,000 rpm for 5 minutes. 2 μL of the obtained sample was implanted into LC-MS/MS for analysis. As for undiluted plasma sample, 30 μL of it was added into a solution of acetonitrile containing 150 μL internal standard material (osalmide in 100 μg/mL). The mixture was shaken for 5 minutes, and then centrifuged at 4,000 rpm for 5 minutes. 2 μL of the obtained sample was implanted into LC-MS/MS for analysis.
(§6) As for data analysis, WinNolin (V6.2) non-compartment model (NCA) was used for calculating main metabolic pharmacokinetic parameters including t1/2, AUC(0−t), AUCinf, V, Cl, MRT, etc., and Microsoft Office EXCEL was used for calculating mean values, standard deviations and coefficients of variation.

[2] = In vivo pharmacokinetic experiment, intravenous administration; set-up: species or system Sprague Dawley rats; settings: for mean residence time (MRT) compared with compound 1 / terminal half-life compared with compound 1: intravenous administration, rats, in words; for AUC(0-inf) / MRT inf / clearance / half-life / Vd: male, Sprague-Dawley, rat, plasma, intravenous administration (1 mg/kg), SD rats; for half-life: read-out: T½ (converted); for Vd: read-out: Vss
Protocol: as §1, §2
Intravenous administration group: 1.61 mg of each of compounds 1-5 was respectively prepared into a solution of 1 mg/mL by using 1.610 mL 10% HP-β-CD as a diluent. Each solution was vortexed 1-2 mins after mixed fully, and then was ultrasonically treated for 28-30 mins. The obtained solution was used as medicine administrated to intravenous administration group, and the administration was conducted with a dose of 1 mL/kg body weight of each rat.
as §3, §4, §5, §6

[3] = after oral administration, rats
[4] = after oral administration, rats, read-out: terminal half-life (converted)
[5] = oral administration (3 mg/kg), SD rats, read-out: T½ (converted)
[6] = oral administration (3 mg/kg), SD rats

Chain of human S1P3 (Q99500 whole entry): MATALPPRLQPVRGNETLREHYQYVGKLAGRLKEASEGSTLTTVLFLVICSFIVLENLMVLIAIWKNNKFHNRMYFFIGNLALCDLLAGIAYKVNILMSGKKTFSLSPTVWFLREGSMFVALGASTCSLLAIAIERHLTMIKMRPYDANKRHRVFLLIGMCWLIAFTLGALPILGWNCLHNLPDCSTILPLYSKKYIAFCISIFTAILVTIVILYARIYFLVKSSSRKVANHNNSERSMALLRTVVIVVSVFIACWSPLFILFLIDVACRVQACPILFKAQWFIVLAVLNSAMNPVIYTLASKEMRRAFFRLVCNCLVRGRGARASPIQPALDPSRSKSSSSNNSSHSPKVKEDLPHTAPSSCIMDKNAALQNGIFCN
T1 sequence (P21453 whole entry): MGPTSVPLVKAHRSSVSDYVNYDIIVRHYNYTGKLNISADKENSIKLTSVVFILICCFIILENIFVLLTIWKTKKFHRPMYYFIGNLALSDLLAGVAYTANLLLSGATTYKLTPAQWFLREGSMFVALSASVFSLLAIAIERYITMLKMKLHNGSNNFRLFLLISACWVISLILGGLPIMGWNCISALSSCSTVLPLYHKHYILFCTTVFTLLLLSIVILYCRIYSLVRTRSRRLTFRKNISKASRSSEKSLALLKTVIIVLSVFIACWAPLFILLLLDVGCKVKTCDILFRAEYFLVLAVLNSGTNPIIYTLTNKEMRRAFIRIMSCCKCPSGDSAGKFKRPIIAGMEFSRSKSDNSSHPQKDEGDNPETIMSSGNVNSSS

SMILES | internalization activation effect on S1P3 subtype (human S1P3) | EC50 (human S1P3) [nM] | EC50 (human S1P1) [nM] | activity of inducing S1P1 internalization (human S1P1) | half-life shortening relative to compound 1 [1, 3] [%] | half-life [1, 4] [h] | half-life [1, 5] [h] | AUC(0-inf) [1, 6] [ng·h/mL] | Cmax [1, 6] [ng/mL] | Tmax [1, 6] [h] | F [1, 6] [%] | elimination speed after the highest concentration, compared with compounds 1 and 5 ([1]; rats, in words) | mean residence time (MRT) compared with compound 1 [2] | terminal half-life compared with compound 1 [2] | AUC(0-inf) [2] [ng·h/mL] | MRT inf [2] [h] | clearance [2] [mL/min/kg] | half-life [2] [h] | Vd [2] [L/kg] | half-life compared with compound 1 ([1]; oral and intravenous (Tables 1 and 2), rats, in words)
CC(C)Cc1ccc(-c2nc(-c3ccc(CN4CC(C(=O)O)C4)c(Cl)c3)no2)cc1 [Compound 3, 1-{2-chloro-4-[5-(4-isobutylphenyl)-1,2,4-oxadiazol-3-yl]-benzyl}-3-azetidine carboxylic acid] | no internalization activation effect on S1P3 subtype | > 1000 | 3.21 | no significant difference with that of compound 1 | ~50 | < 5.5 | 5.3 ± 0.51 | 8110 ± 469 | 681 ± 61.1 | 3.33 | 96.1 | accelerated obviously | reduced significantly | reduced significantly | 2770 ± 410 | 5.11 ± 0.39 | 6.1 | 5.04 ± 0.37 | 2.65 ± 0.229 | –
CC(C)Cc1ccc(-c2nc(-c3ccc(CN4CC(C(=O)O)C4)c(Br)c3)no2)cc1 [Compound 4, 1-{2-bromo-4-[5-(4-isobutylphenyl)-1,2,4-oxadiazol-3-yl]-benzyl}-3-azetidine carboxylic acid] | no internalization activation effect on S1P3 subtype | > 1000 | 4.2 | no significant difference with that of compound 1 | ~50 | < 5.5 | 5.37 ± 0.15 | 4420 ± 449 | 346 ± 29.6 | 1.15 | 52.9 | accelerated obviously | reduced significantly | reduced significantly | 2770 ± 200 | 5.23 ± 0.36 | 6.03 | 5.29 ± 0.6 | 2.75 ± 0.112 | –
CC(C)Cc1ccc(-c2nc(-c3ccc(CN4CC(C(=O)O)C4)cc3)no2)cc1 [Compound 1, 1-{4-[5-(4-isobutylphenyl)-1,2,4-oxadiazol-3-yl]-benzyl}-3-azetidine carboxylic acid, reference compound] | – | > 1000 | 5.69 | – | – | ~11 | 10.6 ± 1.07 | 6200 ± 147 | 365 ± 51.5 | 2 | 82.5 | – | – | – | 2380 ± 329 | 11 ± 1.2 | 7.12 | 8.69 ± 0.8 | 4.65 ± 0.389 | –
Cc1cc(-c2noc(-c3ccc(CC(C)C)cc3)n2)ccc1CN1CC(C(=O)O)C1 [Compound 5, 1-{2-methyl-4-[5-(4-isobutylphenyl)-1,2,4-oxadiazol-3-yl]-benzyl}-3-azetidine carboxylic acid] | – | – | – | – | – | – | 12.3 ± 2.09 | 5460 ± 401 | 249 ± 8.74 | 3.33 | 74.0 | – | – | – | 2200 ± 89.5 | 12.9 ± 1.24 | 7.57 | 10.1 ± 1.02 | 5.87 ± 0.802 | extended rather than shortened
